Test results reported in patent US20210353633A1, “CYCLODEXTRIN-BASED FORMULATION OF A BCL-2 INHIBITOR” (LES LABORATOIRES SERVIER, priority 2018, published 2021).
Values after ≈ are worked out from the molar mass of the structure shown. Read-outs that look alike come from different tables or passages of the source.

Columns and labels:
[1] = Solubility test in various carriers (Example 1); type: physicochemical; details: thermodynamic from solid; for solubility at 2 h: read-out: Solubility after 2 h
Procedure: The solubility of ‘Compound A, H2SO4’ was studied in various media, including: • citrate buffer (pH=2; 50 mM), acetate buffer (pH=4; 50 mM) and phosphate buffer (pH=6-7.4; 67.7 mM); • cyclodextrins of the type sulfobutyl ether β-cyclodextrin (SBE-β-cyclodextrin) or hydroxypropyl β-cyclodextrin (HP-β-cyclodextrin); more precisely, the SBE-β-cyclodextrin tested is Dexsolve™ marketed by Cyclolab, while the HP-β-cyclodextrins tested are Cavitron™ W7HP7 and Cavitron™ W7HP5 marketed by Wacker; Kleptose™ HP and Kleptose™ HPB marketed by Roquette; • surfactants such as polysorbate 80 and Kolliphor™ ELP; • the mixture PEG400/ethanol/0.9% NaCl (40/10/50).
5 g of the cyclodextrin studied (Dexsolve™, Cavitron™ W7HP7, Cavitron™ W7HP5, Kleptose™ HP or Kleptose™ HPB) are weighed into a […] graduated flask. Approximately 15 mL of water are added and the whole obtained is subjected to magnetic stirring. The volume is then made up to 25 mL by the addition of water. The whole is placed under magnetic stirring for 10 minutes.
1 g of the surfactant studied is weighed into a 50 mL graduated flask. The volume is then made up to 50 mL by means of 0.9% NaCl solution. The whole is placed under magnetic stirring for 1 hour.
20 mL of PEG 400, 5 mL of ethanol and 25 mL of NaCl are taken. The whole is placed in a 100 mL Erlenmeyer flask and stirred magnetically for 30 minutes.
Approximately 340 mg of ‘Compound A, H2SO4’ are weighed into a 5 mL tube. 3 mL of the medium containing the carrier to be tested are then added. The whole is then placed under magnetic stirring for 2 hours or 24 hours. The suspension or solution so obtained is passed through a 0.2 μm filter (PVDF membrane—Millipore) before being analysed by HPLC. In addition, the presence of degradation products of Compound A was investigated in the samples stored for 72 hours at ambient temperature.

[2] = PK parameters in RS4;11 grafted female SCID mice; type: in vivo; details: for Cmax / concentration at 6 h / AUC / half-life / AUC(0-t): female, SCID, mouse, blood; for Cmax / AUC / half-life / AUC(0-t): iv; for AUCt/Dose / Co / tlast / concentration at 6 h / AUC / half-life / AUC(0-t): one i.v. treatment; for Co / tlast / concentration at 6 h / AUC / half-life: 20% HP-β-cyclodextrin solution; for concentration at 6 h: intravenous, read-out: Clast; for half-life: read-out: t1/2, z (converted); for AUC(0-t): administration to the last point
Procedure: RS4;11 cell line, obtained from ATCC, were subcutaneously injected into female SCID mice, provided by Charles River. When tumors reached the appropriate tumor volume, mice were randomized using Easy stat software. […]
In a 100 mL flask, introduce 20 g of Cavitron™ W7HP5 and add around 75 mL of a solution water/0.9% NaCl (70/30, v/v). Stir for 15 minutes at room temperature. Then, make up the solution to a volume of 100 mL by adding the previous solution water/0.9% NaCl, while maintaining magnetic stirring. Weigh the necessary amount of ‘Compound A, H2SO4’ and dissolve it with the previous 20% w/v Cavitron™ W7H5 solution. Heat the whole at 60° C. under vigorous magnetic stirring until solubilisation of the components of the mixture is complete. Measure the pH of the solution obtained. Adjust the pH to 3 by adding drop by drop, either HCl 0.1N or NaOH 0.1N, depending on the concentration of Compound A. Stir the mixture at least for 1 hour. Filtrate the obtained solution with a 0.2 μm-filter.
A 20% w/v Cavitron™ W7H5 solution containing a dose of 4 mg/mL of Compound A was prepared following this procedure. A second solution containing a dose of 1.5 mg/mL of Compound A was also prepared by diluting further the previous solution with the 20% w/v Cavitron™ W7H5 solution.

RS4;11 = assay: Efficacy in RS4;11 xenograft model in mice; type: in vivo; details: day 21, 20% HP-β-cyclodextrin solution
Procedure: The in vivo therapeutic effect of Compound A formulated in a solution comprising 20% of a HP-β-cyclodextrin w/v, was determined in the RS4;11 model after intravenous administration.
RS4;11 cell line, obtained from ATCC, were subcutaneously injected into female SCID mice, provided by Charles River. When tumors reached the appropriate tumor volume, mice were randomized using Easy stat software. Compound A (15 mg/kg or 40 mg/kg expressed as free base) was injected i.v. once a week over two weeks.
In a 100 mL flask, introduce 20 g of Cavitron™ W7HP5 and add around 75 mL of a solution water/0.9% NaCl (70/30, v/v). Stir for 15 minutes at room temperature. Then, make up the solution to a volume of 100 mL by adding the previous solution water/0.9% NaCl, while maintaining magnetic stirring. Weigh the necessary amount of ‘Compound A, H2SO4’ and dissolve it with the previous 20% w/v Cavitron™ W7H5 solution. Heat the whole at 60° C. under vigorous magnetic stirring until solubilisation of the components of the mixture is complete. Measure the pH of the solution obtained. […]
Mice were monitored for tumor development and body weight three times a week and tumor size was measured using electronic calipers. […] The last day with all control animals still present in the study, tumor growth inhibition was calculated using the formula: […]
wherein ‘DTV (Delta Tumor Volume) at Dx’ is calculated as follows: […]

[3] = Aqueous solubility of Compound A; type: physicochemical; details: aqueous buffer
Source text: In order to enable safe and effective administration of Compound A, and to elicit the required therapeutic effects, Compound A needs to be solubilized at higher concentration than its aqueous solubility.

SMILES: Cc1c(N(C(=O)c2cc(-c3cc(Cl)ccc3C(=O)N3Cc4ccccc4C[C@H]3CN3CCOCC3)n(C)c2C)c2ccc(O)cc2)cc(C#N)n1C [Compound A, 5-(5-chloro-2-{[(3S)-3-(morpholin-4-ylmethyl)-3,4-dihydroisoquinolin-2(1H)-yl]carbonyl}phenyl)-N-(5-cyano-1,2-dimethyl-1H-pyrrol-3-yl)-N-(4-hydroxyphenyl)-1,2-dimethyl-1H-pyrrole-3-carboxamide]
- solubility at 24 h ([1]; aqueous with cosolvent or surfactant or cyclodextrin, in the carriers permitting substantial solubilisation (cyclodextrins, PEG400, PEG400/EtOH/0.9% NaCl), read-out: solubilities after 24 hours' stirring): 10000 to 30000 µg/mL (≈ 13.9 to 41.8 mM)
- exposure ([2]; 15 mg/kg i.v.): 20463 ng·h/mL
- exposure ([2]; 40 mg/kg i.v.): 46509 ng·h/mL
- Cmax ([2]; 15 mg/kg i.v.): 14700 ng/mL
- Cmax ([2]; 40 mg/kg i.v.): 23300 ng/mL
- tumor growth inhibition (RS4;11; 15 mg/kg i.v. once a week for 2 weeks): 57.83%
- tumor growth inhibition (RS4;11; 40 mg/kg i.v. once a week for 2 weeks): 75.52%
- solubility ([3]; aqueous media, free base, across all pHs): < 10 µg/mL

SMILES: Cc1c(N(C(=O)c2cc(-c3cc(Cl)ccc3C(=O)N3Cc4ccccc4C[C@H]3CN3CCOCC3)n(C)c2C)c2ccc(O)cc2)cc(C#N)n1C [Compound A, H2SO4, 5-(5-chloro-2-{[(3S)-3-(morpholin-4-ylmethyl)-3,4-dihydroisoquinolin-2(1H)-yl]carbonyl}phenyl)-N-(5-cyano-1,2-dimethyl-1H-pyrrol-3-yl)-N-(4-hydroxyphenyl)-1,2-dimethyl-1H-pyrrole-3-carboxamide]
- solubility at 2 h ([1]; 2% Kolliphor ELP solution, aqueous with cosolvent or surfactant or cyclodextrin, carrier: 2% Kolliphor ELP): 2080 µg/mL (≈ 2.9 mM)
- solubility at 24 h ([1]; 2% Kolliphor ELP solution, aqueous with cosolvent or surfactant or cyclodextrin, carrier: 2% Kolliphor ELP, read-out: Solubility after 24 h): 1740 µg/mL (≈ 2.43 mM)
- solubility at 2 h ([1]; 2% Polysorbate 80 solution, aqueous with cosolvent or surfactant or cyclodextrin, carrier: 2% Polysorbate 80): 2300 µg/mL (≈ 3.21 mM)
- solubility at 24 h ([1]; 2% Polysorbate 80 solution, aqueous with cosolvent or surfactant or cyclodextrin, carrier: 2% Polysorbate 80, read-out: Solubility after 24 h): 1960 µg/mL (≈ 2.73 mM)
- solubility at 2 h ([1]; aqueous buffer, carrier: Acetate buffer (pH=4; 50 mM)): 200 µg/mL (≈ 0.279 mM)
- solubility at 24 h ([1]; aqueous buffer, carrier: Acetate buffer (pH=4; 50 mM), read-out: Solubility after 24 h): 180 µg/mL (≈ 0.251 mM)
- solubility at 2 h ([1]; aqueous buffer, carrier: Citrate buffer (pH=2; 50 mM)): 240 µg/mL (≈ 0.335 mM)
- solubility at 24 h ([1]; aqueous buffer, carrier: Citrate buffer (pH=2; 50 mM), read-out: Solubility after 24 h): 250 µg/mL (≈ 0.349 mM)
- solubility at 2 h ([1]; aqueous buffer, carrier: Phosphate buffer (pH=6-7.4; 67.7 mM)): 210 µg/mL (≈ 0.293 mM)
- solubility at 24 h ([1]; aqueous buffer, carrier: Phosphate buffer (pH=6-7.4; 67.7 mM), read-out: Solubility after 24 h): 520 µg/mL (≈ 0.725 mM)
- solubility at 2 h ([1]; aqueous with cosolvent or surfactant or cyclodextrin, carrier: Cavitron W7HP5, 20% by weight cyclodextrin solution): 25200 µg/mL (≈ 35.1 mM)
- solubility at 24 h ([1]; aqueous with cosolvent or surfactant or cyclodextrin, carrier: Cavitron W7HP5, 20% by weight cyclodextrin solution, read-out: Solubility after 24 h): 30200 µg/mL (≈ 42.1 mM)
- solubility at 2 h ([1]; aqueous with cosolvent or surfactant or cyclodextrin, carrier: Cavitron W7HP7, 20% by weight cyclodextrin solution): 17900 µg/mL (≈ 24.9 mM)
- solubility at 24 h ([1]; aqueous with cosolvent or surfactant or cyclodextrin, carrier: Cavitron W7HP7, 20% by weight cyclodextrin solution, read-out: Solubility after 24 h): 21200 µg/mL (≈ 29.5 mM)
- solubility at 2 h ([1]; aqueous with cosolvent or surfactant or cyclodextrin, carrier: Dexsolve, 20% by weight cyclodextrin solution): 23400 µg/mL (≈ 32.7 mM)
- solubility at 24 h ([1]; aqueous with cosolvent or surfactant or cyclodextrin, carrier: Dexsolve, 20% by weight cyclodextrin solution, read-out: Solubility after 24 h): 23200 µg/mL (≈ 32.3 mM)
- solubility at 24 h ([1]; aqueous with cosolvent or surfactant or cyclodextrin, carrier: Kleptose HP, 20% by weight cyclodextrin solution, read-out: Solubility after 24 h): 25000 to 26000 µg/mL (≈ 34.9 to 36.2 mM)
- solubility at 24 h ([1]; aqueous with cosolvent or surfactant or cyclodextrin, carrier: Kleptose HPB, 20% by weight cyclodextrin solution, read-out: Solubility after 24 h): 30000 to 31000 µg/mL (≈ 41.8 to 43.2 mM)
- solubility at 2 h ([1]; aqueous with cosolvent or surfactant or cyclodextrin, carrier: PEG400/EtOH/0.9% NaCl (40/10/50)): 10300 µg/mL (≈ 14.4 mM)
- solubility at 24 h ([1]; aqueous with cosolvent or surfactant or cyclodextrin, carrier: PEG400/EtOH/0.9% NaCl (40/10/50), read-out: Solubility after 24 h): 10800 µg/mL (≈ 15 mM)
- solubility at 2 h ([1]; organic solvent or mixture, carrier: Absolute ethanol): 1060 µg/mL (≈ 1.48 mM)
- solubility at 24 h ([1]; organic solvent or mixture, carrier: Absolute ethanol, read-out: Solubility after 24 h): 1130 µg/mL (≈ 1.58 mM)
- solubility at 2 h ([1]; organic solvent or mixture, carrier: PEG 400): 11700 µg/mL (≈ 16.3 mM)
- solubility at 24 h ([1]; organic solvent or mixture, carrier: PEG 400, read-out: Solubility after 24 h): 11200 µg/mL (≈ 15.6 mM)
- solubility at 2 h ([1]; carrier: Water): 2870 µg/mL (≈ 4 mM)
- solubility at 24 h ([1]; carrier: Water, read-out: Solubility after 24 h): 1560 µg/mL (≈ 2.17 mM)
- AUCt/Dose ([2]; 15 mg/kg): 1360 ng·h/mL per mg/kg
- Co ([2]; 15 mg/kg): 14692 ng/mL
- tlast ([2]; 15 mg/kg): 6 h
- AUCt/Dose ([2]; 40 mg/kg): 1140 ng·h/mL per mg/kg
- Co ([2]; 40 mg/kg): 23290 ng/mL
- tlast ([2]; 40 mg/kg): 6 h
- concentration at 6 h ([2]; 15 mg/kg): 58.4 ng/mL
- concentration at 6 h ([2]; 40 mg/kg): 457 ng/mL
- AUC ([2]; 15 mg/kg): 20500 ng·h/mL
- half-life ([2]; 15 mg/kg): 45.6 min
- AUC ([2]; 40 mg/kg): 46500 ng·h/mL
- half-life ([2]; 40 mg/kg): 66 min
- AUC(0-t) ([2]; 15 mg/kg): 20400 ng·h/mL
- AUC(0-t) ([2]; 40 mg/kg): 45800 ng·h/mL
- solubility ([3]; aqueous medium, at pH=2.5): 1400 µg/mL (≈ 1.95 mM)
